Reference: publication PMC6197744, “Triazolo[4,5-d]pyrimidines as Validated General Control Nonderepressible 2 (GCN2) Protein Kinase Inhibitors Reduce Growth of Leukemia Cells” (Computational and Structural Biotechnology Journal, 2018)
Converted amounts (≈) assume the structure as drawn.

How the values were obtained:
Kinetic solubility assay = assay type: physicochemical; details: for solubility (in words): PBS pH 7.4; for solubility at 2 h: aqueous buffer, kinetic from dmso stock, PBS pH 7.4, 25 °C
Procedure: Compound solubility was determined in PBS at pH 7.4 by Pharmaron, Inc. (Beijing, China). Briefly, all compounds and control solutions were prepared in DMSO at concentrations of 10 mM. Diclofenac was used as a positive control. 10 μL or 30 μL of each compound was added into a 96-well plate, followed by adding 990 μL or 970 μL, respectively, of PBS at pH 7.4. A stir stick was added to each well and wells were sealed using a molded PTDE/SIL 96-Well Plate Cover. […] After incubation the samples were transferred into the filter plate and filtered by Vacuum Manifold. The filtered samples were diluted with methanol to obtain 3 μM standards (STD). The samples were analyzed by LC-MS/MS against a standard of known concentration in DMSO. The solubility values of duplicate test compounds were calculated in Microsoft Excel using the following equation, where DF means dilution factor: Sample=AREASample×INJVOLStd×DFSample×STD/AREAStd×INJVOLSample

PIM1 = biological target: T1, PIM1 (Homo sapiens, UniProt P11309); test: Broad kinase panel screen (split-luciferase); assay type: binding; details: PIM1, 0.5 uM
T1 construct: purchased Luceome Biotechnologies
T1 sequence (P11309 whole entry): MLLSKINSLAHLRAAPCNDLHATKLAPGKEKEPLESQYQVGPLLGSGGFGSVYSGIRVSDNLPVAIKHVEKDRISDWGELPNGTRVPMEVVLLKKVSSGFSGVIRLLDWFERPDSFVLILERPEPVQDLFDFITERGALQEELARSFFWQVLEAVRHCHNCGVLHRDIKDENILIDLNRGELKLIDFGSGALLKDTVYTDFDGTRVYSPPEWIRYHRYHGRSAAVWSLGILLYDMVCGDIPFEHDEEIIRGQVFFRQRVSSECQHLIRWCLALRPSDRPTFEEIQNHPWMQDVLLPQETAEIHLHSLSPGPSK
Procedure: (§1) Compound 2 was screened against a standard panel of 50 protein kinases by Luceome Biotechnologies (Tucson, AZ). In brief, Compound 2 was dissolved and diluted in DMSO to a concentration of 12.5 μM from a 10 mM stock solution. As a control, compound 2 was evaluated for false positive against split-luciferase. For kinase assays, each C-terminal half of firefly luciferase linked kinase (Cfluc-Kinase) was translated along with the coiled coil Fos attached to the N-terminal fragment (Nfluc) (Fos-Nfluc) using rabbit reticulocyte lysate at 30 °C for 90 min. 24 µL aliquot of this lysate containing 1 µL of either DMSO or Compound 2 (at a final concentration 0.5 μM) was incubated for 30 minutes at room temperature followed by 1 hour incubation in the presence of a kinase specific probe. Finally, 80 µL of luciferin assay reagent was added and luminescence was immediately measured on a luminometer. Compound 2 was screened in duplicate against each kinase.
(§2) The % Inhibition and % Activity Remaining was calculated using the following equations: […]

EPHB2 = biological target: T2, EPHB2 (Homo sapiens, UniProt P29323); test: Broad kinase panel screen (split-luciferase); assay type: binding; details: EPHB2, 0.5 uM
T2 construct: purchased Luceome Biotechnologies
Procedure: as §1, §2

SIK1/SNF1LK = biological target: T3, SIK1/SNF1LK (Homo sapiens, UniProt P57059); test: Broad kinase panel screen (split-luciferase); assay type: binding
T3 construct: purchased Luceome Biotechnologies
T3 sequence (P57059 whole entry): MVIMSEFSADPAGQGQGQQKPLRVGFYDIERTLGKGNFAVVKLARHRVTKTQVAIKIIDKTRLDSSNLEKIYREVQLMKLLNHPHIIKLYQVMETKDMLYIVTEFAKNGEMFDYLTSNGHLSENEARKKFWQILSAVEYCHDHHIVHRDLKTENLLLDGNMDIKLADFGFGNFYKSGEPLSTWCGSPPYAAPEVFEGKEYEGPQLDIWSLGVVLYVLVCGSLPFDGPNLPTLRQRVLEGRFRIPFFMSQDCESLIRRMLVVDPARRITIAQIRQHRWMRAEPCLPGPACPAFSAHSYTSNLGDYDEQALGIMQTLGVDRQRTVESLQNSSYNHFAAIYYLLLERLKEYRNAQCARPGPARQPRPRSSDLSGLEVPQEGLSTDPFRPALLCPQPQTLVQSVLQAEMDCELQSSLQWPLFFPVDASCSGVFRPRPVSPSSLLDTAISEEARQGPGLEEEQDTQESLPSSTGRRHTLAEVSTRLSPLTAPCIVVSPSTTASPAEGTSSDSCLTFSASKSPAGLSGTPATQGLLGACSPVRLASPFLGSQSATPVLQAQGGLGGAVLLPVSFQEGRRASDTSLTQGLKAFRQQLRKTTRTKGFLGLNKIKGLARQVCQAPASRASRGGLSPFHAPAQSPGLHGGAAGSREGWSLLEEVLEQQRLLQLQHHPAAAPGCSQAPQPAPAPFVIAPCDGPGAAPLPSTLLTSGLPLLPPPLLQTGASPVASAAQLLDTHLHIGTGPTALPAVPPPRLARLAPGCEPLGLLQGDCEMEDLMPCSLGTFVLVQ
Procedure: as §1, §2

MSK2/RPS6KA4 = biological target: T4, MSK2/RPS6KA4 (Homo sapiens, UniProt O75676); test: Broad kinase panel screen (split-luciferase); assay type: binding; details: MSK2/RPS6KA4, 0.5 uM
T4 construct: purchased Luceome Biotechnologies
Procedure: as §1, §2

AMPK-a1/AMPK = biological target: T5, AMPK-a1/AMPK (Homo sapiens, UniProt Q13131); test: Broad kinase panel screen (split-luciferase); assay type: binding
T5 construct: purchased Luceome Biotechnologies
Procedure: as §1, §2

SIK2 = biological target: T6, SIK2 (Homo sapiens, UniProt Q9H0K1); test: Broad kinase panel screen (split-luciferase); assay type: binding; details: SIK2, 0.5 uM
T6 construct: purchased Luceome Biotechnologies
Procedure: as §1, §2

MAP3K10 /MLK2 = biological target: T7, MAP3K10 /MLK2 (Homo sapiens, UniProt Q02779); test: Broad kinase panel screen (split-luciferase); assay type: binding; details: MAP3K10 /MLK2, 0.5 uM
T7 construct: purchased Luceome Biotechnologies
Procedure: as §1, §2

MAPK14/p38a = biological target: T8, MAPK14/p38a (Homo sapiens, UniProt Q16539); test: Broad kinase panel screen (split-luciferase); assay type: binding
T8 construct: purchased Luceome Biotechnologies
T8 sequence (Q16539 whole entry): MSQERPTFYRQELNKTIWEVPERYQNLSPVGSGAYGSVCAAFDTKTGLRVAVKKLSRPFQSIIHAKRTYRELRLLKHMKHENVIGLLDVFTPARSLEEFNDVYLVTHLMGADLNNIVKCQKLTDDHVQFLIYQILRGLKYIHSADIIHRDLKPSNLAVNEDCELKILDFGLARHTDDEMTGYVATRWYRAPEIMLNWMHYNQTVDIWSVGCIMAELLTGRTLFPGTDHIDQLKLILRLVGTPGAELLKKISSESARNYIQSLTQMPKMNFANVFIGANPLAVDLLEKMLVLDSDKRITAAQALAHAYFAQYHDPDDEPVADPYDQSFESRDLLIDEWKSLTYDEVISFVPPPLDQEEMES
Procedure: as §1, §2

AAK1 = biological target: T9, AAK1 (Homo sapiens, UniProt Q2M2I8); test: Broad kinase panel screen (split-luciferase); assay type: binding; details: AAK1, 0.5 uM
T9 construct: purchased Luceome Biotechnologies
Procedure: as §1, §2

PKX/PRKX = biological target: T10, PKX/PRKX (Homo sapiens, UniProt P51817); test: Broad kinase panel screen (split-luciferase); assay type: binding
T10 construct: purchased Luceome Biotechnologies
Procedure: as §1, §2

ITK = biological target: T11, ITK (Homo sapiens, UniProt Q08881); test: Broad kinase panel screen (split-luciferase); assay type: binding
T11 construct: purchased Luceome Biotechnologies
Procedure: as §1, §2

AURKB = biological target: T12, AURKB (Homo sapiens, UniProt Q96GD4); test: Broad kinase panel screen (split-luciferase); assay type: binding
T12 construct: purchased Luceome Biotechnologies
Procedure: as §1, §2

AKT3 = biological target: T13, AKT3 (Homo sapiens, UniProt Q9Y243); test: Broad kinase panel screen (split-luciferase); assay type: binding; details: AKT3, 0.5 uM
T13 construct: purchased Luceome Biotechnologies
Procedure: as §1, §2

HCK = biological target: T14, HCK (Homo sapiens, UniProt P08631); test: Broad kinase panel screen (split-luciferase); assay type: binding
T14 construct: purchased Luceome Biotechnologies
Procedure: as §1, §2

CAMK1D = biological target: T15, CAMK1D (Homo sapiens, UniProt Q8IU85); test: Broad kinase panel screen (split-luciferase); assay type: binding
T15 construct: purchased Luceome Biotechnologies
T15 sequence (Q8IU85 whole entry): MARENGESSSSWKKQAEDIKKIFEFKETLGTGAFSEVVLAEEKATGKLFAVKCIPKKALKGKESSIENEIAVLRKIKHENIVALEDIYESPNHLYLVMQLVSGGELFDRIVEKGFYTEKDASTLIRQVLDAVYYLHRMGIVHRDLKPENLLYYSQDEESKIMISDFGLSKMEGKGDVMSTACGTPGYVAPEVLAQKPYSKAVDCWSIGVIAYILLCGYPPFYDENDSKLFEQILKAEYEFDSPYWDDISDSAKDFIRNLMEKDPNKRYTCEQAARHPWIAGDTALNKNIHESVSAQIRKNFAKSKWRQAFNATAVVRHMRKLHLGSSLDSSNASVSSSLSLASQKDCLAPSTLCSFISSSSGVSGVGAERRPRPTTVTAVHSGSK
Procedure: as §1, §2

DAPK3 = biological target: T16, DAPK3 (Homo sapiens, UniProt O43293); test: Broad kinase panel screen (split-luciferase); assay type: binding; details: DAPK3, 0.5 uM
T16 construct: purchased Luceome Biotechnologies
Procedure: as §1, §2

KIT = biological target: T17, KIT (Homo sapiens, UniProt P10721); test: Broad kinase panel screen (split-luciferase); assay type: binding
T17 construct: purchased Luceome Biotechnologies
Procedure: as §1, §2

VEGFR2/KDR/FLK1 = biological target: T18, VEGFR2/KDR/FLK1 (Homo sapiens, UniProt P35968); test: Broad kinase panel screen (split-luciferase); assay type: binding; details: VEGFR2/KDR/FLK1, 0.5 uM
T18 construct: purchased Luceome Biotechnologies
Procedure: as §1, §2

SLK = biological target: T19, SLK (Homo sapiens, UniProt Q9H2G2); test: Broad kinase panel screen (split-luciferase); assay type: binding
T19 construct: purchased Luceome Biotechnologies
T19 sequence (Q9H2G2 whole entry): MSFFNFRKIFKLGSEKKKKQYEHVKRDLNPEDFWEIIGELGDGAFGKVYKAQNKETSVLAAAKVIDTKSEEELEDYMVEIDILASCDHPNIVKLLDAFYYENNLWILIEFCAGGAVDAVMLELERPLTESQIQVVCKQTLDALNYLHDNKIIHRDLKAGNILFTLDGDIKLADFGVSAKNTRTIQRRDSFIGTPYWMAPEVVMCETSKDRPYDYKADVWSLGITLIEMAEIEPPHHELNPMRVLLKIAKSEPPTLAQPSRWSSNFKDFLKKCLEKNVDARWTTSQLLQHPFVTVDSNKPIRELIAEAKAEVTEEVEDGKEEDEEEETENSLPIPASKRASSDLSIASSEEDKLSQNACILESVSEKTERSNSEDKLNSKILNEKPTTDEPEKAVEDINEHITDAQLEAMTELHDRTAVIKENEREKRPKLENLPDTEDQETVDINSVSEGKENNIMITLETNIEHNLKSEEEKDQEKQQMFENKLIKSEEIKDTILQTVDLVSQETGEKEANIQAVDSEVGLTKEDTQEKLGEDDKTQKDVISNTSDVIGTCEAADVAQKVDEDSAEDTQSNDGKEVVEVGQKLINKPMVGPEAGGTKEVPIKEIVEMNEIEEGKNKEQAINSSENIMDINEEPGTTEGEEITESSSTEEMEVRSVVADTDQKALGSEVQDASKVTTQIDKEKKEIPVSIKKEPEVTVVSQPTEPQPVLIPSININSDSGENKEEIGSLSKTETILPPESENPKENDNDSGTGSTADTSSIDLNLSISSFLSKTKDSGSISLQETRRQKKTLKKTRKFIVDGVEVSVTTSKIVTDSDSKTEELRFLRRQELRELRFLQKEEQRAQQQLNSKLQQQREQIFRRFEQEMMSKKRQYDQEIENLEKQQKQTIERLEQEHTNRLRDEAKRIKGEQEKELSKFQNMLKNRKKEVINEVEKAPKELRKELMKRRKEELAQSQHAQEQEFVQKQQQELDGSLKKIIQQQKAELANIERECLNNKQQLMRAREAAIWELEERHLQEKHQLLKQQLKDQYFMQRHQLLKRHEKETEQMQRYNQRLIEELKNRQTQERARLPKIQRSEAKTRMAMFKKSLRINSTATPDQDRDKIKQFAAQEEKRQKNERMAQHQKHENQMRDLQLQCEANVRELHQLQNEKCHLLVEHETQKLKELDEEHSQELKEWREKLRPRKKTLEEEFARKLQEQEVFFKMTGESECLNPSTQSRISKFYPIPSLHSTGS
Procedure: as §1, §2

AURKC = biological target: T20, AURKC (Homo sapiens, UniProt Q9UQB9); test: Broad kinase panel screen (split-luciferase); assay type: binding
T20 construct: purchased Luceome Biotechnologies
Procedure: as §1, §2

PDGFRB = biological target: T21, PDGFRB (Homo sapiens, UniProt P09619); test: Broad kinase panel screen (split-luciferase); assay type: binding
T21 construct: purchased Luceome Biotechnologies
Procedure: as §1, §2

EPHA5 = biological target: T22, EPHA5 (Homo sapiens, UniProt P54756); test: Broad kinase panel screen (split-luciferase); assay type: binding; details: EPHA5, 0.5 uM
T22 construct: purchased Luceome Biotechnologies
Procedure: as §1, §2

ABL1 = biological target: T23, ABL1 (Homo sapiens, UniProt P00519); test: Broad kinase panel screen (split-luciferase); assay type: binding; details: ABL1, 0.5 uM
T23 construct: purchased Luceome Biotechnologies
Procedure: as §1, §2

PKCe/PRKCE = biological target: T24, PKCe/PRKCE (Homo sapiens, UniProt Q02156); test: Broad kinase panel screen (split-luciferase); assay type: binding
T24 construct: purchased Luceome Biotechnologies
Procedure: as §1, §2

AURKA = biological target: T25, AURKA (Homo sapiens, UniProt O14965); test: Broad kinase panel screen (split-luciferase); assay type: binding
T25 construct: purchased Luceome Biotechnologies
T25 sequence (O14965 whole entry): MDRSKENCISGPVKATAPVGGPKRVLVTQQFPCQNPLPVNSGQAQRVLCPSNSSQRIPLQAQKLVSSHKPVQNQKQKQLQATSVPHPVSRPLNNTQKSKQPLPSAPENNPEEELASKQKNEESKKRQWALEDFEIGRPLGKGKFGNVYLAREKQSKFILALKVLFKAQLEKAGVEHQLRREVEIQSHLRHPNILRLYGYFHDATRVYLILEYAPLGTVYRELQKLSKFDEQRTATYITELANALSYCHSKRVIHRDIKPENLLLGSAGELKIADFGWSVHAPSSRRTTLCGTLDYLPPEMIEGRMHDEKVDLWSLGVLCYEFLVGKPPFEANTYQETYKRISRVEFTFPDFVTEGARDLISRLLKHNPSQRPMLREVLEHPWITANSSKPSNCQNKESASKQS
Procedure: as §1, §2

MAP3K11/MLK3 = biological target: T26, MAP3K11/MLK3 (Homo sapiens, UniProt Q16584); test: Broad kinase panel screen (split-luciferase); assay type: binding; details: MAP3K11/MLK3, 0.5 uM
T26 construct: purchased Luceome Biotechnologies
Procedure: as §1, §2

IGF1R = biological target: T27, IGF1R (Homo sapiens, UniProt P08069); test: Broad kinase panel screen (split-luciferase); assay type: binding
T27 construct: purchased Luceome Biotechnologies
T27 sequence (P08069 31-1367): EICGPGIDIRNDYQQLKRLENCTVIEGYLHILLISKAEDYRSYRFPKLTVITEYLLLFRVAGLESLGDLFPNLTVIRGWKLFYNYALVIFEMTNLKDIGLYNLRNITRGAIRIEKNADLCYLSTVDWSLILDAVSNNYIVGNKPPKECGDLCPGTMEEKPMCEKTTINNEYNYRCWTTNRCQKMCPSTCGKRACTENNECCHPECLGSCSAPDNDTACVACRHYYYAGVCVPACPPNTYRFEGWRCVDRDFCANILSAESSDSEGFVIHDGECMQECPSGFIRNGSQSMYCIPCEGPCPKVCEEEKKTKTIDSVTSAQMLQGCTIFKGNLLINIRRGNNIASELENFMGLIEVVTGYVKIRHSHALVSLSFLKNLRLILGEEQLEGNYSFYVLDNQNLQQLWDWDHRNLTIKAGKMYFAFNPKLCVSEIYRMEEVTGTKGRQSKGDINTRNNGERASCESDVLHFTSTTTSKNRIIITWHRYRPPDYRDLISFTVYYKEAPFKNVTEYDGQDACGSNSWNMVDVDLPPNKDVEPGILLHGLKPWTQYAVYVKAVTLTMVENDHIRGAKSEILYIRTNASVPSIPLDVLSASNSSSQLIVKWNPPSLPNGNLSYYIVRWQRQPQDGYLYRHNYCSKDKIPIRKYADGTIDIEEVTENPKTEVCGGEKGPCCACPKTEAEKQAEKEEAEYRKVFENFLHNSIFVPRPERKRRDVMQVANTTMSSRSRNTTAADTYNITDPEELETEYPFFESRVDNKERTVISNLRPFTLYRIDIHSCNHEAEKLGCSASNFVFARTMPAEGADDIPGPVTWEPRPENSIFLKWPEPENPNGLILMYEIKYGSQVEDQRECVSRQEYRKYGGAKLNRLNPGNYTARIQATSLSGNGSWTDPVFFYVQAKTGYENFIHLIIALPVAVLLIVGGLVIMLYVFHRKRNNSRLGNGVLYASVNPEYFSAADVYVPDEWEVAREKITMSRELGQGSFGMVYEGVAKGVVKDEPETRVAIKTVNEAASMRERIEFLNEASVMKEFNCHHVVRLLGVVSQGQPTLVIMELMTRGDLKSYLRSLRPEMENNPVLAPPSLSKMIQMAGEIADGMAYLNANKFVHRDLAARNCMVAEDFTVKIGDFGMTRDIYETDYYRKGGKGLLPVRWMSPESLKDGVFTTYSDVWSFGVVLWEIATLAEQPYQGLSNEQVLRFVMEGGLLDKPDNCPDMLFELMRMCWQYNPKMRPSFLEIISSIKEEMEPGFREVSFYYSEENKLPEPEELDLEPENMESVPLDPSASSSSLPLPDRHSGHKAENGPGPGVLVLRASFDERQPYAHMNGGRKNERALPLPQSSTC
Procedure: as §1, §2

[1] = biological target: standard panel of 50 protein kinases; test: Broad kinase panel screen, whole panel; assay type: binding; details: 0.5 μM
Procedure: Compounds 1–9 were screened in a radiometric […] kinase assay against human GCN2 and other kinases involved in the UPR and ISR pathways (Table 1). […] The most soluble of the potent tool compounds (1 and 2) were selected for in vitro cell-based assays where the phosphorylation of eIF2α (p-eIF2α) was used as a readout for GCN2 inhibition.
as §1, §2

SMILES: CCn1cc(Nc2ncc3nnn(-c4ccc(C(=O)OC)cc4)c3n2)cn1 [Compound 1, Methyl 4-(5-((1-ethyl-1H-pyrazol-4-yl)amino)-3H-[1,2,3]triazolo[4,5-d]pyrimidin-3-yl)benzoate]
- solubility (in words) (Kinetic solubility assay): poor
- solubility at 2 h (Kinetic solubility assay): 0.65 µM (≈ 0.237 µg/mL)

SMILES: CCOc1ccc(-n2nnc3cnc(Nc4cnn(CC)c4)nc32)cc1 [Compound 2, 3-(4-Ethoxyphenyl)-N-(1-ethyl-1H-pyrazol-4-yl)-3H-[1,2,3]triazolo[4,5-d]pyrimidin-5-amine]
- remaining activity at 0.5 µM (PIM1): 93.4%
- remaining activity at 0.5 µM (EPHB2): 97.7%
- remaining activity at 0.5 µM (SIK1/SNF1LK): 99.9%
- remaining activity at 0.5 µM (MSK2/RPS6KA4): 100%
- remaining activity at 0.5 µM (AMPK-a1/AMPK): 100%
- remaining activity at 0.5 µM (SIK2): 100%
- remaining activity at 0.5 µM (MAP3K10 /MLK2): 96.7%
- remaining activity at 0.5 µM (MAPK14/p38a): 100%
- remaining activity at 0.5 µM (AAK1): 73.5%
- remaining activity at 0.5 µM (PKX/PRKX): 97.7%
- remaining activity at 0.5 µM (ITK): 89.9%
- remaining activity at 0.5 µM (AURKB): 94.7%
- remaining activity at 0.5 µM (AKT3): 100%
- remaining activity at 0.5 µM (HCK): 96%
- remaining activity at 0.5 µM (CAMK1D): 92.9%
- remaining activity at 0.5 µM (DAPK3): 97.6%
- remaining activity at 0.5 µM (KIT): 88.8%
- remaining activity at 0.5 µM (VEGFR2/KDR/FLK1): 77.1%
- remaining activity at 0.5 µM (SLK): 98.7%
- remaining activity at 0.5 µM (AURKC): 98.7%
- remaining activity at 0.5 µM (PDGFRB): 84.4%
- remaining activity at 0.5 µM (EPHA5): 97.8%
- remaining activity at 0.5 µM (ABL1): 88.9%
- remaining activity at 0.5 µM (PKCe/PRKCE): 100%
- remaining activity at 0.5 µM (AURKA): 97.1%
- remaining activity at 0.5 µM (MAP3K11/MLK3): 100%
- remaining activity at 0.5 µM (IGF1R): 100%
- solubility (in words) (Kinetic solubility assay): poor
- solubility at 2 h (Kinetic solubility assay): 0.31 µM (≈ 0.109 µg/mL)
- kinase inhibition in standard broad kinase panel (in words) [1]: no significant kinase inhibition
